# Experimental data as given in paper PMC11117333, “Design and synthesis of new dihydropyrimidine/sulphonamide hybrids as promising anti-inflammatory agents via dual mPGES-1/5-LOX inhibition” (Frontiers in Chemistry, 2024).
# Several values for one entry are separate records, joined by “and”; a condition that tells them apart may be missing. Identical values can stand only once. Marks after values point to notes of the source that are not given here.
# Assays:
# IL-6 = assay: Rat serum IL-6 after carrageenan (ELISA); format: in vivo; details: for IL-6 serum concentration: mean ± SE
# Description: (§1) In this study, specializing ELISA kits were used to determine the concentration of inflammatory cytokines PGE2, IL-6, and TNF-α. The study’s findings were examined in accordance with the instructions provided by the manufacturer, and measurements were taken based on the optical density at 450 nm.
# PGE2 = assay: Rat serum PGE2 after carrageenan (ELISA); format: in vivo; details: 4 hours after subcutaneous carrageenan; for PGE2 serum concentration: mean ± SE
# Description: Inhibiting PGE2 is a crucial strategy in anti-inflammatory therapy, playing a pivotal role in managing inflammation and its associated conditions.
# as §1
# mPGES-1 = molecular target: T1, mPGES-1 (Homo sapiens, UniProt O14684); assay: Cell-free mPGES-1 enzyme assay (microsomal fractions from IL-1β-stimulated A549 cells); format: biochemical; details: for remaining activity at 10 µM: 10 µM compound, read-out: mPGES-1 RA (%) 10 µM (residual activity percentage); for remaining activity at 10 µM / IC50: cell-free, A549 microsomes
# T1 construct: microsomal fractions from IL-1β-stimulated A549 cells served as the enzyme source; endogenous in cells; host or cells: A549 cells (IL-1β-stimulated), microsomal fraction
# T1 sequence (O14684 1-152): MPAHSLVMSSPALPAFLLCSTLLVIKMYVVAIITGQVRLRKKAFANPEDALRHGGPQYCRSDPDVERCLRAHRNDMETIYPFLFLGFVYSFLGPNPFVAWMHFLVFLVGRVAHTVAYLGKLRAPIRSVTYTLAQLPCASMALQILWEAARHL
# Method: A cell-free assay was conducted to evaluate the capacity of compounds […] to act as inhibitors of mPGES-1. In this assay, microsomal fractions from IL-1β-stimulated A549 cells served as the enzyme source ([Gürses et al., 2021]). During the initial screening phase, compounds 3a–j were examined for their effects on mPGES-1 at a concentration of 10 µM.
# Microsomal measures of A549 cells expressing mPGES-1 were made in accordance with prior research findings ([Koeberle et al., 2008]). These cells were cultivated in Dulbecco’s Modified Eagle Medium and resuspended in a homogenization buffer. Subsequently, the microsomes were subjected to pre-incubation with either assessed compounds or a carrier solution containing 0.1 percent DMSO. The enzymatic process was halted by introducing FeCl3, citric acid, and 11-PGE2 as an internal standard. The quantities of Prostaglandin E2 (PGE2) were measured via RP-HPLC methodologies.
# [1] = test system: carrageen-induced paw edema; assay: Carrageenan-induced paw edema bioassay; format: in vivo, rat; set-up: concentration or dose not given beside the values; details: for % Of edema inhibition 1 h: 1 h after carrageenan injection; for % Of edema inhibition 3 h: 3 h after carrageenan injection; for % Of edema inhibition 5 h: 5 h after carrageenan injection
# Method: The compounds’ efficacy was measured as edema inhibition percentage (EI %) after 1, 3, and 5 h of carrageenan injection vs. the conventional medicine Celecoxib.
# Compounds 3c, 3e, 3h, and 3j were chosen for in vivo anti-inflammatory testing using the carrageen-induced paw edema bioassay method described by [Winter et al, (1962)]. The compounds’ efficacy was measured as edema inhibition percentage (EI%) after 1, 3, and 5 h of carrageenan injection vs. the conventional medicine Celecoxib.
# soya bean 5-LOX = molecular target: T2, soya bean 5-LOX (Glycine max, UniProt P08170); assay: 5-LOX enzyme assay (EIA kit, Cayman 760700); format: biochemical
# T2 construct: purchased Cayman Chemical, Ann Arbor, Michigan, USA 760700
# T2 sequence (P08170 1-839): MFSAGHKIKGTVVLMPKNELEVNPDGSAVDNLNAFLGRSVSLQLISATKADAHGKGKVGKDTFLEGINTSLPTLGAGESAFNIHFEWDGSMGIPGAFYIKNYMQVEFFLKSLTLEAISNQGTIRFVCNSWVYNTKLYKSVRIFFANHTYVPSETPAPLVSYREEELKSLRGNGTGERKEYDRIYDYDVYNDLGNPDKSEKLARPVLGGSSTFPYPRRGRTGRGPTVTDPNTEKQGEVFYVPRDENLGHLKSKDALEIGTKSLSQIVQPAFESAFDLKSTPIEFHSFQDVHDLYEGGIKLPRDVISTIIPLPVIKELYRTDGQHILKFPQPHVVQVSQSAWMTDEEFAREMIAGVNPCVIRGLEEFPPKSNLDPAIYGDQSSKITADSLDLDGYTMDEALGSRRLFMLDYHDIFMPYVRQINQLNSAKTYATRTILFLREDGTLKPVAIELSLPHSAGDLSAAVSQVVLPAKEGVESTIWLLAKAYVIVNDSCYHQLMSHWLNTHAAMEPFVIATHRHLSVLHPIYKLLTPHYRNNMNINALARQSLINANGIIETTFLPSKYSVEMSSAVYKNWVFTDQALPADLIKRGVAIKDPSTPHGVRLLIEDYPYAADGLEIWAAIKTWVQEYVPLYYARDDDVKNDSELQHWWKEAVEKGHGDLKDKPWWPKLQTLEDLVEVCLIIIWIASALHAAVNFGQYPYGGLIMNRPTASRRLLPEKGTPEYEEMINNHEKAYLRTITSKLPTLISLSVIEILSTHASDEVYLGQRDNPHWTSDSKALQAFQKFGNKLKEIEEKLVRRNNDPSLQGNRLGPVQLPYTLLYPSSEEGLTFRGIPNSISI
# Description: The capacity of compounds 3a–j to inhibit the enzyme 5-lipoxygenase (5-LOX) has been investigated ([Youssif et al., 2019]).
# The study used an enzyme immune assay (EIA) kit (catalogue no. 760700, Cayman Chemical, Ann Arbor, Michigan, USA) to evaluate the inhibitory activity of target analogues against soya bean 5-LOX, ensuring compliance with manufacturer’s instructions and protocols, and calculating IC50 values ([Roschek et al., 2009]).
# rat intestinal mucosa = assay: Gastric ulcerogenic activity (macroscopic inspection); format: in vivo; set-up: Score: Severity lesions: scale not given here; details: oral 10 mg/kg
# Method: The two most common side effects of long-term NSAID use are gastrointestinal erosion and ulcers ([Hendawy et al., 2021]). As a result, we were curious about the ulcerogenic potential of the most efficacious drugs, 3e and 3j, when given orally. The ulcerogenic effects of 3e and 3j were assessed by macroscopic inspection of rat intestinal mucosa after oral administration of 10 mg/kg of 3e, 3j, indomethacin, and celecoxib ([Manivannan and Chaturvedi, 2011]).
# The ulcerogenic effects of compounds 3e and 3j were evaluated by macroscopic examination of rat intestinal mucosa after oral administration of 10 mg/kg of these compounds and indomethacin and celecoxib ([Manivannan and Chaturvedi, 2011]). See Appendix A for details.
# TNF-α = assay: Rat serum TNF-α after carrageenan (ELISA); format: in vivo; details: for TNFα serum concentration: mean ± SE
# Description: as §1
Compound,melting point,remaining activity at 10 µM (mPGES-1),IC50 (mPGES-1),% Of edema inhibition 1 h [1],% Of edema inhibition 3 h [1],% Of edema inhibition 5 h [1],IC50 (soya bean 5-LOX),also measured
"COc1ccc(C2NC(=O)NC(C)=C2C(=O)Nc2ccc(S(N)(=O)=O)cc2)cc1OC (stereo not shown) [Compound 3j, 4-[3,4-dimethoxyphenyl]-6-methyl-2-oxo-N-[4-sulfamoylphenyl]-1,2,3,4-tetrahydropyrimidine-5-carboxamide]",266 to 267 °C,24.7%,0.92 µM,38%,60%,71%,1.98 µM and 1.89 µM,IL-6 %inhibition (IL-6): 77%; IL-6 serum concentration (IL-6): 85.50 ± 2.35^bc pg/mL; PGE2 %inhibition (PGE2): 79.20% and 79%; PGE2 serum concentration (PGE2): 62.60 ± 2.75 ^b pg/mL; fold more potent than the reference MK886 (mPGES-1) (mPGES-1; from IC50 values): 2.4 fold; Score: No. of gastric ulcers (rat intestinal mucosa): 0; Score: Severity lesions (rat intestinal mucosa): 0; Ulceration in the isolated rat stomach (in words) (rat intestinal mucosa): did not generate ulceration; TNFα %inhibition (TNF-α): 71%; TNFα serum concentration (TNF-α): 68.50 ± 2.00^bc pg/mL
"Cc1ccc(-c2cc(C(F)(F)F)nn2-c2ccc(S(N)(=O)=O)cc2)cc1 [Celecoxib, reference compound]",–,–,–,40%,54%,22%,–,Score: No. of gastric ulcers (rat intestinal mucosa): 2.5 ± 0.10; Score: Severity lesions (rat intestinal mucosa): 5.80 ± 0.20
"CC1=C(C(=O)Nc2ccc(S(N)(=O)=O)cc2)C(c2cccc(O)c2)NC(=S)N1 (stereo not shown) [Compound 3b, 4-[3-hydroxyphenyl]-6-methyl-N-[4-sulfamoylphenyl]-2-thioxo-1,2,3,4-tetrahydropyrimidine-5-carboxamide]",288 to 291 °C,69.2%,3.89 µM,–,–,–,4.82 µM,–
"COc1ccc(C2NC(=S)NC(C)=C2C(=O)Nc2ccc(S(N)(=O)=O)cc2)cc1O (stereo not shown) [Compound 3c, 4-[3-hydroxy-4-methoxyphenyl]-6-methyl-N-[4-sulfamoylphenyl]-2-thioxo-1,2,3,4-tetrahydropyrimidine-5-carboxamide]",296 °C,33.6%,1.53 µM,29%,46%,55%,2.87 µM,fold less potent than 3j (mPGES-1) (mPGES-1; from IC50 values): 1.5 fold
"COc1ccc2c(c1)c(CC(=O)O)c(C)n2C(=O)c1ccc(Cl)cc1 [Indomethacin, reference compound]",–,–,–,–,–,–,–,Score: No. of gastric ulcers (rat intestinal mucosa): 8.5 ± 0.40; Score: Severity lesions (rat intestinal mucosa): 12.50 ± 0.70
"COc1cc(C2NC(=S)NC(C)=C2C(=O)Nc2ccc(S(N)(=O)=O)cc2)cc(OC)c1OC (stereo not shown) [Compound 3d, 6-Methyl-N-[4-sulfamoylphenyl]-2-thioxo-4-[3,4,5-trimethoxyphenyl]-1,2,3,4-tetrahydropyrimidine-5-carboxamide]",270 to 272 °C,46.8%,2.7 µM,–,–,–,3.65 µM,–
"CC1=C(C(=O)Nc2ccc(S(N)(=O)=O)cc2)C(c2cccc(O)c2)NC(=O)N1 (stereo not shown) [Compound 3g, 4-[3-hydroxyphenyl]-6-methyl-2-oxo-N-[4-sulfamoylphenyl]-1,2,3,4-tetrahydropyrimidine-5-carboxamide]",270 to 272 °C,64.7%,3.45 µM,–,–,–,4.45 µM,–
"COc1ccc(C2NC(=O)NC(C)=C2C(=O)Nc2ccc(S(N)(=O)=O)cc2)cc1O (stereo not shown) [Compound 3h, 4-[3-hydroxy-4-methoxyphenyl]-6-methyl-2-oxo-N-[4-sulfamoylphenyl]-1,2,3,4-tetrahydropyrimidine-5-carboxamide]",275 to 279 °C,31.2%,1.32 µM,30%,49%,58%,2.64 µM,IL-6 %inhibition (IL-6): 63%; IL-6 serum concentration (IL-6): 140.70 ± 4.20^ab pg/mL; PGE2 %inhibition (PGE2): 69%; PGE2 serum concentration (PGE2): 95.00 ± 2.50^abc pg/mL; fold less potent than 3j (mPGES-1) (mPGES-1; from IC50 values): 1.5 fold; TNFα %inhibition (TNF-α): 56%; TNFα serum concentration (TNF-α): 102.70 ± 2.90^ab pg/mL
"CC1=C(C(=O)Nc2ccc(S(N)(=O)=O)cc2)C(c2ccccc2)NC(=S)N1 (stereo not shown) [Compound 3a, 6-methyl-4-phenyl-N-[4-sulfamoylphenyl]-2-thioxo-1,2,3,4-tetrahydropyrimidine-5-carboxamide]",266 to 269 °C,89.2%,4.28 µM,–,–,–,5.85 µM,–
"Cc1cnc(NC(=O)C2=C(O)c3ccccc3S(=O)(=O)N2C)s1 [Meloxicam, reference compound]",–,–,–,–,–,–,–,IL-6 %inhibition (IL-6): 70%; PGE2 %inhibition (PGE2): 73%; PGE2 %inhibition (PGE2; listed as meloxicam): 72.60%; PGE2 serum concentration (PGE2): 82.50 ± 2.58 ^b pg/mL; TNFα %inhibition (TNF-α): 62%; TNFα serum concentration (TNF-α): 88.50 ± 2.40^ab pg/mL
"COc1cc(C2NC(=O)NC(C)=C2C(=O)Nc2ccc(S(N)(=O)=O)cc2)cc(OC)c1OC (stereo not shown) [Compound 3i, 6-methyl-2-oxo-N-[4-sulfamoylphenyl]-4-[3,4,5-trimethoxyphenyl]-1,2,3,4-tetrahydropyrimidine-5-carboxamide]",260 to 263 °C,53.6%,2.89 µM,–,–,–,3.97 µM,–
"CC1=C(C(=O)Nc2ccc(S(N)(=O)=O)cc2)C(c2ccccc2)NC(=O)N1 (stereo not shown) [Compound 3f, 6-methyl-2-oxo-4-phenyl-N-[4-sulfamoylphenyl]-1,2,3,4-tetrahydropyrimidine-5-carboxamide]",258 to 260 °C,91.4%,4.78 µM,–,–,–,5.34 µM,–
